Molecules are shown by their SMILES.

Assay [1] deals with T1, recombinant human α1D receptor (Homo sapiens, UniProt P25100).
T1 construct: expressed in transfected cells; host or cells: human embryonic kidney 293 cells (HEK93 [sic]), membranes
T1 sequence (P25100 1-572): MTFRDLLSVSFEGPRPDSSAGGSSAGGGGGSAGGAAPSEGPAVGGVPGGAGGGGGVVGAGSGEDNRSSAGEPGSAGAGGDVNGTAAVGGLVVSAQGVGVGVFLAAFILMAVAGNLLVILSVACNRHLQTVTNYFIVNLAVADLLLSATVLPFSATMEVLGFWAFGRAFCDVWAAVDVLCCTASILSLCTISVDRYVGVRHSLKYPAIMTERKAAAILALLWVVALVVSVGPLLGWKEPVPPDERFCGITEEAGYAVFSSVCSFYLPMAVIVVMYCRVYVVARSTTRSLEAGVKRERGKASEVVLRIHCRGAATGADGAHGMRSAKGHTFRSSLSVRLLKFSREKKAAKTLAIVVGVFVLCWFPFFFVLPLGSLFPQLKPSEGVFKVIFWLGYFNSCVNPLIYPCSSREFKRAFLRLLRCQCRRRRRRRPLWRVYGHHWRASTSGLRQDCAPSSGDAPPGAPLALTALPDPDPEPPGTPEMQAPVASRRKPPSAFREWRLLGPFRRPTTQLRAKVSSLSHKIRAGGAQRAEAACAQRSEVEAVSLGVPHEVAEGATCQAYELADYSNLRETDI
In words: Adrenergic α1D selectivity assay, [3H]-prazosin binding to membranes. Particulars: inhibition of [3H]-prazosin binding, HEK cell membranes, read-out: α1 bind pIC50 (converted). The method, boiled down:
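Competition binding on HEK293 membranes with recombinant human α1D receptor, 0.3 nM [3H]-prazosin, 50 mM HEPES/1 mM EDTA pH 7.4, 2 h at room temperature; filtration and scintillation counting. Non-specific binding defined with 10 μM BMY7378. pIC50 from four-parameter logistic fit of specific-binding inhibition.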

Another assay has as its target T2, Adrenergic β2 (Homo sapiens, UniProt P07550).
T2 construct: Adherent H292 cells were removed from tissue culture flasks; endogenous in cells; host or cells: H292 cells
Kind of assay: Adrenergic β2 mediated cAMP production in H292 cells (AlphaScreen cAMP detection). It counts as cell-based. More on the design: key to β2 Int Act: fraction of formoterol maximum activity (formoterol = 1). The conditions noted are these: for β2 Int Act: Intrinsic Activity as a fraction relative to the maximum activity determined for formoterol; for EC50: cAMP production, 60 minutes at room temperature, 300 μM rolipram, read-out: β2 pEC50 (converted). An outline of the steps: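 H292 cells pre-treated 10 min with rolipram (300 μM final), then given agonist for 60 min at room temperature in HBSS/10 mM HEPES pH 7.4, 1.6% DMSO final. Lysate cAMP measured by AlphaScreen against a cAMP standard curve. Four-parameter fit gives pEC50; intrinsic activity relative to formoterol maximum.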

T2 sequence (P07550 whole entry): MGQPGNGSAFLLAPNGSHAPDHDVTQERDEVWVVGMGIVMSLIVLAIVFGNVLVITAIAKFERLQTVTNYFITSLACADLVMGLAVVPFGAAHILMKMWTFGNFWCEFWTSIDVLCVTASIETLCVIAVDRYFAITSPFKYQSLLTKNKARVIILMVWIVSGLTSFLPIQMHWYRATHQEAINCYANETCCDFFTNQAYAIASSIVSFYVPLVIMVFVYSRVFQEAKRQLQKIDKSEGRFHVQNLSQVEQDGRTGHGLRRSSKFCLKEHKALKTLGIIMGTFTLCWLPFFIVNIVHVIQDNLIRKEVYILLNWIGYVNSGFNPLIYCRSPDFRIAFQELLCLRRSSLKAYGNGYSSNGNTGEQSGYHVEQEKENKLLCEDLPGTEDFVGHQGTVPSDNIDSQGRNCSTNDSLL

For the compound `O=C(CCOCCc1ccccc1)N(CCNCCc1ccc(O)c2[nH]c(=O)ccc12)C1CCCCC1` [Example 2, N-Cyclohexyl-N-(2-(2-(8-hydroxy-2-oxo-1,2-dihydroquinolin-5-yl)ethylamino)ethyl)-3-phenethoxypropanamide], the IC50 in assay [1] is 0.794 µM. Besides, at Adrenergic β2, the “β2 Int Act” value was 0.93 and the EC50 was 0.0126 µM.
Take `O=C(CCNCCc1cccc(Cl)c1)N(CCNCCc1ccc(O)c2[nH]c(=O)ccc12)C1CCCCCC1` [Example 3, 3-(3-Chlorophenethylamino)-N-cycloheptyl-N-(2-(2-(8-hydroxy-2-oxo-1,2-dihydroquinolin-5-yl)ethylamino)ethyl)propanamide bis(trifluoroacetate)]: in assay [1], the IC50 is 0.0794 µM. For the same compound, at Adrenergic β2, the “β2 Int Act” value is given as 0.82 and the EC50 is 0.00794 µM.
For `O=C(CCNCCc1ccc(Cl)cc1)N(CCNCCc1ccc(O)c2[nH]c(=O)ccc12)C1CCCCCC1` [Example 4, 3-(4-Chlorophenethylamino)-N-cycloheptyl-N-(2-(2-(8-hydroxy-2-oxo-1,2-dihydroquinolin-5-yl)ethylamino)ethyl)propanamide bis(trifluoroacetate)], the IC50 in assay [1] was 0.0794 µM. For the same compound, on Adrenergic β2, the “β2 Int Act” value stood at 0.79 and the EC50 is 0.02 µM.
Take `CCOc1cccc(CCNCCC(=O)N(CCNCCc2ccc(O)c3[nH]c(=O)ccc23)C2CCCCCC2)c1` [Example 11, N-Cycloheptyl-3-(3-ethoxyphenethylamino)-N-(2-(2-(8-hydroxy-2-oxo-1,2-dihydroquinolin-5-yl)ethylamino)ethyl)propanamide bis(trifluoroacetate)]: the IC50 in assay [1] was 0.316 µM. Also, at Adrenergic β2, the “β2 Int Act” value worked out at 0.65 and the EC50 is 0.0794 µM.
As for `O=C(CCNCCc1cccc(Cl)c1)N(CCNCCc1ccc(O)c2[nH]c(=O)ccc12)C1CCCCC1` [Example 13, 3-(3-Chlorophenethylamino)-N-cyclohexyl-N-(2-(2-(8-hydroxy-2-oxo-1,2-dihydroquinolin-5-yl)ethylamino)ethyl)propanamide bis(trifluoroacetate)], the IC50 in assay [1] was 0.0794 µM. At Adrenergic β2, the “β2 Int Act” value was determined as 0.86 and the EC50 was 0.00794 µM.
The matching figures for `O=C(CCNCCc1ccc(Cl)cc1)N(CCNCCc1ccc(O)c2[nH]c(=O)ccc12)C1CCCCC1` [Example 14, 3-(4-Chlorophenethylamino)-N-cyclohexyl-N-(2-(2-(8-hydroxy-2-oxo-1,2-dihydroquinolin-5-yl)ethylamino)ethyl)propanamide bis(trifluoroacetate)]: 0.501 µM, 0.88 and 0.02 µM.
For the compound `O=C(CCNCCc1cc(F)cc(F)c1)N(CCNCCc1ccc(O)c2[nH]c(=O)ccc12)C1CCCCC1` [Example 15, N-Cyclohexyl-3-(3,5-difluorophenethylamino)-N-(2-(2-(8-hydroxy-2-oxo-1,2-dihydroquinolin-5-yl)ethylamino)ethyl)propanamide bis(trifluoroacetate)], in assay [1], the IC50 was 0.501 µM. On Adrenergic β2, the “β2 Int Act” value is 0.88 and the EC50 is 0.00794 µM.
Take `O=C(CCNCCc1cc(F)ccc1F)N(CCNCCc1ccc(O)c2[nH]c(=O)ccc12)C1CCCCC1` [Example 17, N-Cyclohexyl-3-(2,5-difluorophenethylamino)-N-(2-(2-(8-hydroxy-2-oxo-1,2-dihydroquinolin-5-yl)ethylamino)ethyl)propanamide bis(trifluoroacetate)]: the IC50 in assay [1] is 0.251 µM. For the same compound, on Adrenergic β2, the “β2 Int Act” value was found to be 0.93 and the EC50 was 0.00398 µM.
The matching figures for `O=C(CCNCCc1cccc(F)c1F)N(CCNCCc1ccc(O)c2[nH]c(=O)ccc12)C1CCCCC1` [Example 18, N-Cyclohexyl-3-(3-difluorophenethylamino)-N-(2-(2-(8-hydroxy-2-oxo-1,2-dihydroquinolin-5-yl)ethylamino)ethyl)propanamide bis(trifluoroacetate)]: 0.398 µM, 0.95 and 0.0126 µM.
As for `O=CNc1cc(CCNCCN(C(=O)CCNCCc2ccccc2)C2CCCCC2)ccc1O` [Example 21, N-Cyclohexyl-N-(2-(3-formamido-4-hydroxyphenethylamino)ethyl)-3-(phenethylamino)propanamide], in assay [1], the IC50 was 0.0794 µM. On Adrenergic β2, the “β2 Int Act” value is 0.83 and the EC50 was 0.0316 µM.
In the case of `O=C(CCNCCc1ccccc1)N(CCNCCc1ccc(O)c(O)c1)C1CCCCC1` [Example 22, N-Cyclohexyl-N-(2-(3,4-dihydroxyphenethylamino)ethyl)-3-(phenethylamino)propanamide bis(trifluoroacetate)], in assay [1], the IC50 was 0.2 µM. On Adrenergic β2, the “β2 Int Act” value amounted to 1.01 and the EC50 is 0.02 µM.
For the compound `O=C1COc2c(CCNCCN(C(=O)CCNCCc3ccccc3)C3CCCCC3)ccc(O)c2N1` [Example 23, N-Cyclohexyl-N-(2-(2-(5-hydroxy-3-oxo-3,4-dihydro-2H-benzo[b][1,4]oxazin-8-yl)ethylamino)ethyl)-3-(phenethylamino)propanamide bis(trifluoroacetate)], the IC50 in assay [1] was 0.126 µM. On Adrenergic β2, the “β2 Int Act” value came to 0.79 and the EC50 is 0.000631 µM.
As for `O=C1COc2c(CCNCCN(C(=O)CCNCCc3ccccc3)C3CCCCCC3)ccc(O)c2N1` [Example 24, N-Cycloheptyl-N-(2-(2-(5-hydroxy-3-oxo-3,4-dihydro-2H-benzo[b][1,4]oxazin-8-yl)ethylamino)ethyl)-3-(phenethylamino)propanamide bis(trifluoroacetate)], the IC50 in assay [1] was 0.0501 µM. On Adrenergic β2, the “β2 Int Act” value is listed as 0.85 and the EC50 was 0.001 µM.
For `CCCC[C@@H](C)N(CCNCCc1ccc(O)c2c1OCC(=O)N2)C(=O)CCNCCc1ccccc1` [Example 25, (R)—N-(Hexan-2-yl)-N-(2-(2-(5-hydroxy-3-oxo-3,4-dihydro-2H-benzo[b][1,4]oxazin-8-yl)ethylamino)ethyl)-3-(phenethylamino)propanamide bis(trifluoroacetate)], in that order: 0.0631 µM, 0.9 and 0.001 µM.
As to `O=C1COc2c(CCNCCN(C(=O)CCNCCc3ccc(Cl)c(Cl)c3)C3CCCCCC3)ccc(O)c2N1` [Example 26, N-Cycloheptyl-3-(3,4-dichlorophenethylamino)-N-(2-(2-(5-hydroxy-3-oxo-3,4-dihydro-2H-benzo[b][1,4]oxazin-8-yl)ethylamino)ethyl)propanamide bis(trifluoroacetate)], the IC50 in assay [1] was 0.0794 µM. On Adrenergic β2, the “β2 Int Act” value is 0.74 and the EC50 is 0.00251 µM.
With `O=C1COc2c(CCNCCN(C(=O)CCNCCc3cccc(Cl)c3)C3CCCCC3)ccc(O)c2N1` [Example 27, 3-(3-Chlorophenethylamino)-N-cyclohexyl-N-(2-(2-(5-hydroxy-3-oxo-3,4-dihydro-2H-benzo[b][1,4]oxazin-8-yl)ethylamino)ethyl)propanamide bis(trifluoroacetate)], the IC50 in assay [1] is 0.126 µM. In addition, on Adrenergic β2, the “β2 Int Act” value is 0.89 and the EC50 is 0.002 µM.

Values taken from patent publication US20100056508A1, “AMINE DERIVATIVES AND THEIR USE IN BETA-2-ADRENORECEPTOR MEDIATED DISEASES” (ASTRAZENECA AB, priority 2006, published 2010).
